Assays:
Type in all cases: in vivo
[1] = tested on: pigweed (Amaranthus retroflexus); test: Test A preemergence, pigweed; conditions: for Plant response rating, Pigweed: Preemergence, 0 to 100 scale (0 no effect, 100 complete control)
In short: (§1)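 Test chemicals in a solvent/surfactant mixture were applied as a preemergence directed soil spray on seeded loam–sand, or postemergence to plants 2–10 cm tall at the one- to two-leaf stage. After roughly 10 days in a greenhouse, injury was visually rated versus untreated controls on a 0 (no effect) to 100 (complete control) scale.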

[2] = tested on: corn (Zea mays); test: Test A postemergence, corn; conditions: for Plant response rating, Corn: postemergence, 0 to 100 scale, 0 is no effect, 100 is complete control, approximately 10 days
In short: as §1

[3] = tested on: ryegrass, Italian (Italian ryegrass, Lolium multiflorum); test: Test A postemergence, Italian ryegrass; conditions: for Plant response rating, Ryegrass, Italian: postemergence, 0 to 100 scale, 0 is no effect, 100 is complete control, approximately 10 days
In short: as §1

[4] = tested on: blackgrass (Alopecurus myosuroides); test: Test A postemergence, blackgrass; conditions: for Plant response rating, Blackgrass: postemergence, 0 to 100 scale, 0 is no effect, 100 is complete control, approximately 10 days
In short: as §1

[5] = tested on: kochia (Kochia scoparia); test: Test A preemergence, kochia; conditions: for Plant response rating, Kochia: Preemergence, 0 to 100 scale (0 no effect, 100 complete control)
In short: as §1

[6] = tested on: barnyardgrass (Echinochloa crus-galli); test: Test A preemergence, barnyardgrass; conditions: for Plant response rating, Barnyardgrass: Preemergence, 0 to 100 scale (0 no effect, 100 complete control)
In short: as §1

[7] = tested on: foxtail, giant (giant foxtail, Setaria faberii); test: Test A postemergence, giant foxtail; conditions: for Plant response rating, Foxtail, Giant: postemergence, 0 to 100 scale, 0 is no effect, 100 is complete control, approximately 10 days
In short: as §1

[8] = tested on: wheat (Triticum aestivum); test: Test A postemergence, wheat; conditions: for Plant response rating, Wheat: postemergence, 0 to 100 scale, 0 is no effect, 100 is complete control, approximately 10 days
In short: as §1

[9] = tested on: barnyardgrass (Echinochloa crus-galli); test: Test A postemergence, barnyardgrass; conditions: for Plant response rating, Barnyardgrass: postemergence, 0 to 100 scale, 0 is no effect, 100 is complete control, approximately 10 days
In short: as §1

[10] = tested on: kochia (Kochia scoparia); test: Test A postemergence, kochia; conditions: for Plant response rating, Kochia: postemergence, 0 to 100 scale, 0 is no effect, 100 is complete control, approximately 10 days
In short: as §1

[11] = tested on: barnyardgrass (Echinochloa crus-galli); test: Test B flooded paddy test, barnyardgrass; conditions: for Plant response rating, Barnyardgrass: 250 g ai/ha, Flood, visual rating after 13 to 15 days, scale 0 to 100, 0 is no effect, 100 is complete control
In short: (§2)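 Plants grown to 2-leaf stage, pots flooded to 3 cm above soil and compound applied directly to paddy water, depth maintained throughout. After 13-15 days in greenhouse, visual rating against untreated controls on 0-100 scale (0 no effect, 100 complete control).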

[12] = tested on: foxtail, giant (giant foxtail, Setaria faberii); test: Test A preemergence, giant foxtail; conditions: for Plant response rating, Foxtail, Giant: Preemergence, 0 to 100 scale (0 no effect, 100 complete control)
In short: as §1

[13] = tested on: pigweed (Amaranthus retroflexus); test: Test A postemergence, pigweed; conditions: for Plant response rating, Pigweed: postemergence, 0 to 100 scale, 0 is no effect, 100 is complete control, approximately 10 days
In short: as §1

[14] = tested on: ducksalad (Heteranthera limosa); test: Test B flooded paddy test, ducksalad; conditions: for Plant response rating, Ducksalad: 250 g ai/ha, Flood, visual rating after 13 to 15 days, scale 0 to 100, 0 is no effect, 100 is complete control
In short: as §2

[15] = tested on: rice (Oryza sativa); test: Test B flooded paddy test, rice; conditions: for Plant response rating, Rice: 250 g ai/ha, Flood, visual rating after 13 to 15 days, scale 0 to 100, 0 is no effect, 100 is complete control
In short: as §2

[16] = tested on: sedge, umbrella (small-flower umbrella sedge, Cyperus difformis); test: Test B flooded paddy test, umbrella sedge; conditions: for Plant response rating, Sedge, Umbrella: 250 g ai/ha, Flood, visual rating after 13 to 15 days, scale 0 to 100, 0 is no effect, 100 is complete control
In short: as §2

[17] = tested on: ragweed (common ragweed, Ambrosia elatior); test: Test A preemergence, ragweed; conditions: for Plant response rating, Ragweed: Preemergence, 0 to 100 scale (0 no effect, 100 complete control)
In short: as §1

[18] = tested on: ryegrass, Italian (Italian ryegrass, Lolium multiflorum); test: Test A preemergence, Italian ryegrass; conditions: for Plant response rating, Ryegrass, Italian: Preemergence, 0 to 100 scale (0 no effect, 100 complete control)
In short: as §1

[19] = tested on: ragweed (common ragweed, Ambrosia elatior); test: Test A postemergence, ragweed; conditions: for Plant response rating, Ragweed: postemergence, 0 to 100 scale, 0 is no effect, 100 is complete control, approximately 10 days
In short: as §1

[20] = tested on: galium (catchweed bedstraw, Galium aparine); test: Test A postemergence, galium; conditions: for Plant response rating, Galium: postemergence, 0 to 100 scale, 0 is no effect, 100 is complete control, approximately 10 days
In short: as §1

[21] = Amaranthus retroflexus, pre-emergence, 240 h, read-out: Plant response rating, Pigweed
[22] = Zea mays, post-emergence, 240 h, read-out: Plant response rating, Corn
[23] = Lolium multiflorum, post-emergence, 240 h, read-out: Plant response rating, Ryegrass, Italian
[24] = Alopecurus myosuroides, post-emergence, 240 h, read-out: Plant response rating, Blackgrass
[25] = Bassia scoparia, pre-emergence, 240 h, read-out: Plant response rating, Kochia
[26] = Echinochloa crus-galli, pre-emergence, 240 h, read-out: Plant response rating, Barnyardgrass
[27] = Setaria faberi, post-emergence, 240 h, read-out: Plant response rating, Foxtail, Giant
[28] = Triticum aestivum, post-emergence, 240 h, read-out: Plant response rating, Wheat
[29] = Echinochloa crus-galli, post-emergence, 240 h, read-out: Plant response rating, Barnyardgrass
[30] = Bassia scoparia, post-emergence, 240 h, read-out: Plant response rating, Kochia
[31] = Setaria faberi, pre-emergence, 240 h, read-out: Plant response rating, Foxtail, Giant
[32] = Amaranthus retroflexus, post-emergence, 240 h, read-out: Plant response rating, Pigweed
[33] = Ambrosia artemisiifolia, pre-emergence, 240 h, read-out: Plant response rating, Ragweed
[34] = Lolium multiflorum, pre-emergence, 240 h, read-out: Plant response rating, Ryegrass, Italian
[35] = Ambrosia artemisiifolia, post-emergence, 240 h, read-out: Plant response rating, Ragweed
[36] = Galium, post-emergence, 240 h, read-out: Plant response rating, Galium

CCCOc1c(C#N)cccc1Oc1ncc(Cl)cn1 [Compound 50]
30: Plant response rating, Barnyardgrass [11]
50: Plant response rating, Ducksalad [14]
0: Plant response rating, Ryegrass, Italian ([3]; 31 g ai/ha) | Plant response rating, Ryegrass, Italian ([3]; 125 g ai/ha) | Plant response rating, Blackgrass ([4]; 31 g ai/ha) | Plant response rating, Foxtail, Giant ([7]; 31 g ai/ha) | Plant response rating, Wheat ([8]; 31 g ai/ha) | Plant response rating, Wheat ([8]; 125 g ai/ha) | Plant response rating, Barnyardgrass ([9]; 31 g ai/ha) | Plant response rating, Rice [15] | Plant response rating, Ragweed ([17]; 31 g ai/ha) | Plant response rating, Ragweed ([17]; 125 g ai/ha) | Plant response rating, Ryegrass, Italian ([18]; 31 g ai/ha) | Plant response rating, Ryegrass, Italian ([18]; 125 g ai/ha)
70: Plant response rating, Pigweed ([13]; 125 g ai/ha)
40: Plant response rating, Galium ([20]; 125 g ai/ha)
90: Plant response rating, Foxtail, Giant ([12]; 125 g ai/ha)
20: Plant response rating, Pigweed ([1]; 31 g ai/ha) | Plant response rating, Kochia ([5]; 31 g ai/ha) | Plant response rating, Barnyardgrass ([6]; 125 g ai/ha) | Plant response rating, Foxtail, Giant ([7]; 125 g ai/ha) | Plant response rating, Barnyardgrass ([9]; 125 g ai/ha) | Plant response rating, Kochia ([10]; 31 g ai/ha) | Plant response rating, Pigweed ([13]; 31 g ai/ha)
80: Plant response rating, Kochia ([10]; 125 g ai/ha)
60: Plant response rating, Sedge, Umbrella [16]
100: Plant response rating, Pigweed ([1]; 125 g ai/ha) | Plant response rating, Kochia ([5]; 125 g ai/ha)
10: Plant response rating, Corn ([2]; 31 g ai/ha) | Plant response rating, Corn ([2]; 125 g ai/ha) | Plant response rating, Blackgrass ([4]; 125 g ai/ha) | Plant response rating, Barnyardgrass ([6]; 31 g ai/ha) | Plant response rating, Foxtail, Giant ([12]; 31 g ai/ha) | Plant response rating, Ragweed ([19]; 31 g ai/ha) | Plant response rating, Ragweed ([19]; 125 g ai/ha) | Plant response rating, Galium ([20]; 31 g ai/ha)

CCCCCOc1c(C#N)cccc1Oc1ncc(Cl)cn1 [Compound 51]
50: Plant response rating, Pigweed ([1]; 125 g ai/ha)
20: Plant response rating, Corn ([2]; 125 g ai/ha) | Plant response rating, Blackgrass ([4]; 125 g ai/ha)
30: Plant response rating, Barnyardgrass ([9]; 125 g ai/ha)
40: Plant response rating, Kochia ([5]; 125 g ai/ha) | Plant response rating, Barnyardgrass ([6]; 125 g ai/ha) | Plant response rating, Foxtail, Giant ([7]; 125 g ai/ha) | Plant response rating, Kochia ([10]; 31 g ai/ha) | Plant response rating, Foxtail, Giant ([12]; 31 g ai/ha) | Plant response rating, Pigweed ([13]; 125 g ai/ha) | Plant response rating, Galium ([20]; 31 g ai/ha)
70: Plant response rating, Kochia ([10]; 125 g ai/ha) | Plant response rating, Galium ([20]; 125 g ai/ha)
100: Plant response rating, Foxtail, Giant ([12]; 125 g ai/ha)
95: Plant response rating, Sedge, Umbrella [16]
80: Plant response rating, Ducksalad [14]
10: Plant response rating, Pigweed ([1]; 31 g ai/ha) | Plant response rating, Corn ([2]; 31 g ai/ha) | Plant response rating, Ryegrass, Italian ([3]; 125 g ai/ha) | Plant response rating, Barnyardgrass ([6]; 31 g ai/ha) | Plant response rating, Foxtail, Giant ([7]; 31 g ai/ha) | Plant response rating, Barnyardgrass ([9]; 31 g ai/ha) | Plant response rating, Pigweed ([13]; 31 g ai/ha) | Plant response rating, Ragweed ([19]; 125 g ai/ha)
0: Plant response rating, Ryegrass, Italian ([3]; 31 g ai/ha) | Plant response rating, Blackgrass ([4]; 31 g ai/ha) | Plant response rating, Kochia ([5]; 31 g ai/ha) | Plant response rating, Wheat ([8]; 31 g ai/ha) | Plant response rating, Wheat ([8]; 125 g ai/ha) | Plant response rating, Barnyardgrass [11] | Plant response rating, Rice [15] | Plant response rating, Ragweed ([17]; 31 g ai/ha) | Plant response rating, Ragweed ([17]; 125 g ai/ha) | Plant response rating, Ryegrass, Italian ([18]; 31 g ai/ha) | Plant response rating, Ryegrass, Italian ([18]; 125 g ai/ha) | Plant response rating, Ragweed ([19]; 31 g ai/ha)

FC(F)(F)C(F)(F)C(F)(F)COc1c(Br)cccc1Oc1ncc(Cl)cn1 [Compound 52, 2-[3-bromo-2-(2,2,3,3,4,4,4-heptafluorobutoxy)phenoxy]-5-chloropyrimidine]
15%: plant injury at 250 g/ha ([15]; Oryza sativa, read-out: Plant response rating, Rice)
0%: pest or weed control at 125 g/ha [5, 25] | plant injury at 125 g/ha [8, 28] | pest or weed control at 250 g/ha ([11]; Echinochloa crus-galli, read-out: Plant response rating, Barnyardgrass) | pest or weed control at 125 g/ha [17, 33] | pest or weed control at 500 g/ha [17, 33]
30%: plant injury at 500 g/ha [2, 22] | pest or weed control at 125 g/ha [6, 26] | pest or weed control at 500 g/ha [19, 35]
90%: pest or weed control at 500 g/ha [10, 30] | pest or weed control at 250 g/ha ([16]; Cyperus difformis, read-out: Plant response rating, Sedge, Umbrella) | pest or weed control at 500 g/ha [20, 36]
40%: pest or weed control at 500 g/ha [3, 23] | pest or weed control at 500 g/ha [5, 25] | pest or weed control at 125 g/ha [20, 36]
10%: plant injury at 125 g/ha [2, 22] | pest or weed control at 125 g/ha [4, 24] | pest or weed control at 125 g/ha [9, 29] | pest or weed control at 125 g/ha [18, 34]
20%: pest or weed control at 125 g/ha [3, 23] | pest or weed control at 500 g/ha [4, 24] | pest or weed control at 125 g/ha [7, 27] | plant injury at 500 g/ha [8, 28] | pest or weed control at 125 g/ha [19, 35]
80%: pest or weed control at 500 g/ha [7, 27] | pest or weed control at 500 g/ha [9, 29] | pest or weed control at 125 g/ha [12, 31] | pest or weed control at 125 g/ha [13, 32]
75%: pest or weed control at 250 g/ha ([14]; Heteranthera limosa, read-out: Plant response rating, Ducksalad)
50%: pest or weed control at 500 g/ha [6, 26] | pest or weed control at 500 g/ha [18, 34]
70%: pest or weed control at 125 g/ha [1, 21] | pest or weed control at 125 g/ha [10, 30]
100%: pest or weed control at 500 g/ha [1, 21] | pest or weed control at 500 g/ha [12, 31] | pest or weed control at 500 g/ha [13, 32]

From patent publication US10485235B2, “Aryloxypyrimidinyl ethers as herbicides” (FMC Corporation, priority 2015, dated 2019)
